We go through 13 molecules from patent US7037939B2, “Compound and derivative of gabapentin” (Industrial Technology Research Institue, priority 2002, dated 2006).

Structures are written as SMILES.

The nature of data set [1]: Oral drug absorption test in rats: gabapentin concentration in blood/serum by LC/MS/MS. Format: in vivo, rat. The following applies: 300 mg/kg, ratio of AUC to Gabapentin HCl. As for the experimental part: Rats (3 male, Winstar rats) are fed with 300 mg/kg dosage of compounds. Plural blood samples are collected at different times (0, 0.5, 1, 2, 3, 8, 12, 24 hrs). The blood samples are centrifuged, and the concentration of gabapentin in the serum are analyzed with LC/MS/MS (MRM method, limitation of instruments 0.005 μg/mL).
After reducing the dosage, compounds of gabapentin prodrugs were selected for further pharmacodynamic analysis. The rats are fed with 50 mg/kg dosage of gabapentin equivalency individually.

A further data set concerns Caco-2 cell. The data set is described as follows: Caco-2 monolayer cell transmission rate (in vitro intestinal absorption model). The class given is in vitro ADME, human. An excerpt:
The common use of the activity selection model for the in vitro intestinal absorption comprises: (1) Carcinoms (Caco-2); (2) Using Chamber; (3) Everted Gut Sac. Basically, there is no difference for those three drug-activity-selection models when they are used for evaluating the activity selection. However, in terms of the cell source from human, a cell line is predominant. Moreover, with the cellular metabolism being similar to human intestines, Caco-2 becomes an excellent tool in the study of intestine absorption. Therefore, in the comparison of the in vitro transmission rate between gabapentin and gabapentin derivatives, the Caco-2 system is still the favorable model.
The research for studying gabapentin and the derivatives thereof in the present invention includes: Caco-2 cell activation, Caco-2 monolayer cell cultivation, resistance value measurement, effect of time to gabapentin transmission rate, and comparison of transmission rate between gabapentin and gabapentin derivatives. In constructing the Caco-2 monolayer, the original cell line is the human colon adenocarcinoma cell (Caco-2), and its data sheet is listed as Table 2.
The Caco-2 cell is activated appropriately, and seeded in the transwell at 37° C. in an amount of about 1×10^5. The aliquot is cultivated in 5% CO2 at 37° C. and replaced with a fresh medium every 3 to 4 days, and then the monolayer cell is obtained by the 21 days cultivation. The integrity of the Caco-2 cell is further characterized by tissue section and resistance value measurement.
HPLC Analysis: Intersil ODS-3V 250*4.6 mm column, Solvent: MeOH/H2O=10:90 to 70:30 with 0.1% of NH4OAc, Flow rate=1.0 ml/min, ELSD: Evaporative Light Scattering Detector. Every derivative has been repeated for 3 times in analysis, 4 hr later, the sample is analyzed for the transmission rate and then averaged to account its transmission fold.

[2] abbreviates: Caco-2 monolayer, 4 h, mean of 3 repeats, HPLC-ELSD.
The mark [3] stands for this setting: ratio of Caco-2 transmission rate to GBP.HCl, 4 h.

As for `CCOC(=O)CC1(CNC(=O)CC2(CN)CCCCC2)CCCCC1` [Embodiment 2, (1-{[2-(1-Aminomethyl-cyclohexyl)-acetylamino]-methyl}-cyclohexyl)-acetic acid ethyl ester], in data set [1], the “AUC value relative to Gabapentin HCl” value was determined as 14.9 times. In the data set with Caco-2 cell (human, Caco-2, 4 h), the “Caco-2 Cell Mean Total Transmission rate 4 h (%)” value is 10.25% and the “gbp-prodrug/gbp Transmission Fold” value is on record as 9.3 Fold.
Turning to `CCOC(=O)CC1(CNC(=O)c2cccnc2)CCCCC1` [Embodiment 27, (1-{[(Pyridine-3-carbonyl)-amino]-methyl}-cyclohexyl)-acetic acid ethyl ester], in the data set with Caco-2 cell (human, Caco-2, 4 h), the “Caco-2 Cell Mean Total Transmission rate 4 h (%)” value came out at 9.39% and the “gbp-prodrug/gbp Transmission Fold” value is listed as 8.5 Fold.
The matching figures for `CCOC(=O)CC1(CNC(=O)C(C)N)CCCCC1` (stereo not drawn) [Embodiment 28, {1-[(2-Amino-propionylamino)-methyl]-cyclohexyl}-acetic acid ethyl ester]: 8.11% and 7.4 Fold.
The matching figures for `CCOC(=O)CC1(CNC(=O)C(N)C(C)C)CCCCC1` (stereo not drawn) [Embodiment 29, {1-[(2-Amino-3-methyl-butyrylamino)-methyl]-cyclohexyl}-acetic acid ethyl ester]: 8.73% and 7.9 Fold.
The matching figures for `CCOC(=O)CC1(CNC(=O)C(N)c2ccccc2)CCCCC1` (stereo not drawn) [Embodiment 30, {1-[(2-Amino-2-phenyl-acetylamino)-methyl]-cyclohexyl}-acetic acid ethyl ester]: 11.87% and 10.8 Fold.
With `CCOC(=O)CC1(CNC(=O)C(N)CCc2ccccc2)CCCCC1` (stereo not drawn) [Embodiment 31, {1-[(2-Amino-4-phenyl-butyrylamino)-methyl]-cyclohexyl}-acetic acid ethyl ester], in the data set on Caco-2 cell (human, Caco-2, 4 h), the “Caco-2 Cell Mean Total Transmission rate 4 h (%)” value came out at 12.30% and the “gbp-prodrug/gbp Transmission Fold” value is 11.2 Fold.
For `CCOC(=O)CC1(CNC(=O)C(N)CCc2ccccc2)CCCCC1` (stereo not drawn) [Embodiment 32, {1-[(2-Amino-4-phenyl-butyrylamino)-methyl]-cyclohexyl}-acetic acid ethyl ester], in that order: 1.76% and 1.6 Fold.
Regarding `CCOC(=O)CC1(CNC(=O)C(N)c2cc3ccccc3[nH]2)CCCCC1` (stereo not drawn) [Embodiment 33, (1-{[2-Amino-2-(1H-indol-2-yl)-acetylamino]-methyl}-cyclohexyl)-acetic acid ethyl ester], in the data set on Caco-2 cell (setting [2]), the “Caco-2 Cell Mean Total Transmission rate 4 h (%)” value is 9.97%. Also, the “gbp-prodrug/gbp Transmission Fold” value with Caco-2 cell (setting [3]) was 9.1 Fold.
Consider `CCOC(=O)CC1(CNC(=O)C2CSCN2)CCCCC1` (stereo not drawn) [Embodiment 34, (1-{[(Thiazolidine-4-carbonyl)-amino]-methyl}-cyclohexyl)-acetic acid ethyl ester], for which, in the data set on Caco-2 cell (human, Caco-2, 4 h), the “Caco-2 Cell Mean Total Transmission rate 4 h (%)” value is given as 4.50% and the “gbp-prodrug/gbp Transmission Fold” value is recorded as 4.1 Fold.
As for `CCOC(=O)CC1(CNC(=O)C(N)c2ccc(O)cc2)CCCCC1` (stereo not drawn) [Embodiment 35, (1-{[2-Amino-2-(4-hydroxy-phenyl)-acetylamino]-methyl}-cyclohexyl)-acetic acid ethyl ester], in the data set on Caco-2 cell (human, Caco-2, 4 h), the “Caco-2 Cell Mean Total Transmission rate 4 h (%)” value stood at 10.33% and the “gbp-prodrug/gbp Transmission Fold” value worked out at 9.4 Fold.
`CCOC(=O)CC1(CNC(=O)CCNC(=O)c2cccnc2)CCCCC1` [Embodiment 36, [1-({3-[(Pyridine-3-carbonyl)-amino]-propionylamino}-methyl)-cyclohexyl]-acetic acid ethyl ester]: the “Caco-2 Cell Mean Total Transmission rate 4 h (%)” value in the data set with Caco-2 cell (setting [2]) turned out to be 9.00%. The “gbp-prodrug/gbp Transmission Fold” value in the data set on Caco-2 cell (setting [3]) came out at 8.2 Fold.
Regarding `CCOC(=O)CC1(CNC(=O)C2CSCN2C(=O)OC(C)(C)C)CCCCC1` (stereo not drawn) [Embodiment 37, 4-[(1-Ethoxycarbonylmethyl-cyclohexylmethyl)-carbamoyl]-thiazolidine-3-carboxylic acid tert-butyl ester], in the data set with Caco-2 cell (setting [2]), the “Caco-2 Cell Mean Total Transmission rate 4 h (%)” value stood at 6.13%. For the same molecule, in the data set with Caco-2 cell (setting [3]), the “gbp-prodrug/gbp Transmission Fold” value amounted to 5.6 Fold.
For `CCOC(=O)CC1(CNC(=O)C(NC(=O)OC(C)(C)C)c2ccc(O)cc2)CCCCC1` (stereo not drawn) [Embodiment 38, (1-{[2-tert-Butoxycarbonylamino-2-(4-hydroxy-phenyl)-acetylamino]-methyl}-cyclohexyl)-acetic acid ethyl ester], in that order: 5.05% and 4.6 Fold.
